{"source": "patent US20240285576A1", "about": "“R-MDMA FOR TREATMENT OF PAIN” (Mind Medicine, Inc., priority 2023, published 2024)", "key": {"[1]": {"test_system": "healthy volunteer population", "assay": "Subjective effects in humans (psychedelic experience questionnaires, 5D-ASC, VAS)", "type": "in vivo", "description": "Doses of any of the compounds herein can be 20-300 mg. […] Compounds can be administered a single dose or multiple doses, up to three times per day. […] The compounds can be administered before, during, or after the individual has the sensation of pain."}, "Mice": {"test_system": "Mice", "assay": "Acute pain: mouse tail flick", "conditions": "for MPE, tail flick: model of acute pain (FIG. 3)"}}}
{"compound": "CN[C@H](C)Cc1ccc2c(c1)OCO2", "note": "[R-MDMA]", "values": [{"measurement": "subjective experience on standard psychedelic experience questionnaires", "setting": "[1]; R-MDMA 75 mg, 125 mg, 175 mg or 225 mg, compared to racemic MDMA", "value": "differentiated subjective experience"}, {"measurement": "measures of emotional breakthrough", "setting": "[1]; R-MDMA 75 mg, 125 mg, 175 mg or 225 mg, healthy volunteer population", "value": "dose dependent changes"}, {"measurement": "psychedelic-type effects (5D-ASC total OAV score)", "setting": "[1]; R-MDMA 300 mg compared with S-MDMA (125 mg), expected", "value": "greater psychedelic-type effects"}, {"measurement": "latency of the tail flick", "setting": "Mice; R-MDMA 17 and 30 mg/kg PO, 30, 60 and 90 minutes after administration, comparable to morphine (FIG. 2)", "value": "statistically significant increase"}, {"measurement": "MPE, tail flick", "setting": "Mice; R-MDMA 17 and 30 mg/kg PO", "value": 60, "unit": "%"}, {"measurement": "% MPE (percent of maximal possible effect), tail flick", "setting": "Mice; R-MDMA treated animals, 60 and 90 minutes post-treatment", "value": "significantly increased"}]}
{"compound": "CN[C@@H](C)Cc1ccc2c(c1)OCO2", "note": "[S-MDMA]", "values": [{"measurement": "subjective stimulation (VAS)", "setting": "[1]; 125 mg of S-MDMA vs 125 mg of R-MDMA, postulated", "value": "greater subjective stimulation"}]}
{"compound": "CN1CC[C@]23c4c5ccc(O)c4O[C@H]2[C@@H](O)C=C[C@H]3[C@H]1C5", "note": "[morphine, reference compound]", "values": [{"measurement": "MPE, tail flick", "setting": "Mice; morphine 4 mg/kg SC", "value": 80, "unit": "%"}]}
